# Laboratory results from patent US20240148745A1, “COMPOUNDS FOR USE IN PROGRESSIVE MULTIPLE SCLEROSIS” (FONDAZIONE CENTRO SAN RAFFAELE, priority 2021, published 2024).
# Structures can show the parent of a compound that is named as a salt.
# Columns and labels:
# [1] = system: rat oligodendrocyte progenitor CG4 line; assay: Differentiation assay on rat oligodendrocyte progenitor CG4 line (HCS, mCherry+); assay type: cell-based; settings: 1 μM; for CG4 differentiation compared with 9cis-RA positive control: secondary screen of 49 selected compounds, 5 days
# From the text: Primary validation on CG4 line toxicity and differentiation. An innovative OPC line was developed for fast and reliable high content screening (HCS) of small compounds inducing oligodendrocyte differentiation. The line was genetically engineered by lentiviral transduction of rat CG4 cells (PubMed=1613821; DOI=10.1002/jnr.490310125; Louis J. C., Magal E., Muir D., Manthorpe M., Varon S.; CG-4, a new bipotential glial cell line from rat brain, is capable of differentiating in vitro into either mature oligodendrocytes or type-2 astrocytes. J. Neurosci. Res. 31:193-204(1992) to express mCherry fluorescent reporter (Evercooren, Anne & Avellana-Adalid, V. & Vitry, Sandrine & Nait-Oumesmar, Brahim & Lachapelle, Francois. (1997). Expansion of Oligodendrocyte Progenitors for Myelin Repair. 10.1007/978-1-4615-5949-8_21) in mature oligodendrocytes only, and EGFP at all stage of the oligodendroglial lineage: both the generation of mature oligodendrocytes (wmNl-mCherry) and the morphological changes associated with differentiation (CMV-EGFP) can be therefore monitored in a single assay. mCherry expression occurred only in O4+/GalC+ differentiated oligodendrocytes and GFP was ubiquitously expressed at all developmental stages. The line so obtained was validated using compounds with well-established effects on oligodendrocyte differentiation (cAMP and T3). Cell-based assay was standardized on the HCS platform (ArrayScanXTI, Brain and Spine Institute (Paris), validating the pro-differentiation effects of clemastine^27 and 9cis-retinoic acid.^28 For HCS validation of 274 compounds identified through in silico screen, double-fluo CG4 line cells were plated in 96 well-plates, 6500 cells/cm^2 and left for 24 h in proliferation. The other day, compounds were added (1 μM) for next 5 days of differentiation, with ⅔ medium changed after 3 days. 9-cis Retinoic Acid (9cis-RA; […]) served as a positive control, negative controls were basal (N1) medium and vehicle (basal+0.1% DMSO). Each compound was tested in triplicate and were imaged with ArrayScanXTI system (35 fields/well) after 5 days of differentiation.
# FIG. 4 provides a schematic representation of High Content Screening (HCS) validation of the 274 compounds identified through in silico screening using CG4 line. […] In addition, the whole short list of 160 non-toxic compounds were screened using the CG4 high content phenotypic assay to further confirm the data from primary screening and to potentially select additional compounds with pro-myelinating activities. From this screening of the short list, 49 hit compounds were identified that increase differentiation either of CG4 cells or primary OPCs (FIG. 6).
# rat primary OPC cultures = assay: Differentiation of rat primary OPC into MBP+ OLs; assay type: cell-based; settings: 96 h, 4 days of differentiation, read-out: MBP+ differentiation (MBP+/SOX10+ OLs plus compounds / plus basal medium)
# Procedure: Secondary validation on primary rat OPC differentiation. Re-validation of the best performing compounds promoting OPC differentiation (fold change >1.5) was performed on primary rat OPC cultures in 96 well-plate run in triplicates by triple immunolabeling for CNPase, MBP and SOX10 as a readout. Compounds at […] were added for 4 days of differentiation and then cell cultures were imaged with ArrayScanXTI platform, number of MBP+OLs were quantified by semi-automated software. Basal medium served as a negative control, 9 cis-RA ([…]) was a positive control.
# Re-validation of the 49 compounds selected from the short list (160 compounds) using rat primary OPC cultures (compounds tested in triplicates in 3 independent experiments. The secondary validation screen of these compounds performed on rat primary OPC cultures selected 17 best lead compounds with a pro-differentiation activity (MBP+/SOX10+OLs plus compounds/MBP+SOX10+ plus basal medium fold increase) induced a strong differentiation into MBP+OLs (fold increase >1.6). Results are shown in FIG. 7.
# [2] = system: murine cortical neurons (14 DIV); assay: NMDA-mediated neuroprotective assay (CCK8 viability); assay type: cell-based, mouse; settings: 1 μM, 3 h pre-treatment, NMDA 8 μM 24 h, p<0.05
# Procedure: To assess neuroprotective activity of 160 selected non-toxic compounds on primary murine cortical neurons, obtained as described in the previous paragraph, ([…]), cultures were pre-treated with 1 μM compounds for either 3 or 24 hours, followed by 24 hours chronic stimulation with NMDA (8 μM) to induce neuronal damage. Each test plate included: a negative control (untreated), vehicle-treated control (0.02% vol/vol DMSO), a positive neurotoxic control—staurosporine 0.1 μM, a stressor—NMDA 8 μM, a positive neuroprotective control—NAC 300 μM, and a combination of stressor +neuroprotective molecule (NMDA+NAC). Cell viability was measured with Cell Counting Kit-8 assay compared to NMDA-treated control.
# The potential neuroprotective activity of 160 selected non-toxic compounds was evaluated on murine cortical neurons (14 DIV) with either 3 h (FIG. 13) or 24 h compounds pre-treatment (FIG. 14). In assay with 3 h pre-treatment, 17 compounds were identified as potential NMDA-neuroprotective hits (marked with black asterisk in FIG. 13, stat. significant at p<0.05, Kruskal-Wallis test with post-hoc two-stage linear step-up procedure of Benjamini, Krieger and Yekutieli multiple comparison correction).
# mouse cortical neurons = assay: Morphological integrity evaluation, NMDA 8 μM (MAP2 neurite length and branching); assay type: cell-based; settings: 3 h pre-treatment, NMDA 8 μM 24 h; Z>0.5 criteria
# Procedure: Apart of viability/metabolic readout in NMDA-mediated neurotoxicity assay, a neuronal structural integrity was evaluated by MAP2 staining. Mouse cortical neurons (14 DIV) cultured in MW96 plates were fixed with 4% paraformaldehyde (PFA). Fixed cells were incubated with blocking solution (PBS 1×, donkey serum 5%, Triton 0.1%) for 1-hour, primary antibody (rabbit α-MAP2, 1:250, Millipore) was applied in the same solution overnight at +4° C. […] Nuclei were stained with 4′-6-diamidino-2-phenylindole (DAPI, Roche). Microscopy was performed using ArrayScan™XTI (ThermoFisher) imaging platform. 15 images per well were acquired and analyzed by CellProfiler. Total neurite length and the total number of non-trunk branches were analyzed. Total neurite length and the total number of branching were evaluated from 15 images/well, each compound or control was tested in triplicates. The total neurite length and total number of branches were converted to a standardized Z-score using formula: Xij=((Xij−μ)/σ), where xij is the raw measurement of the compound located in well (i, j), and μ and σ are, respectively, the mean and the standard deviation of all measurements of the plate.^31
# The morphological integrity of mouse cortical neurons upon chronic 24 h NMDA (8 μM) exposure with compounds pre-treatment (3 h) in preventive regimen was evaluated. Control (basal), DMSO, N-acetylcysteine (NAC) served as positive controls, while staurosporine and NMDA were negative controls.
smiles,measurement,setting,value
COc1cc(OC)nc(O[C@H](C(=O)O)C(OC)(c2ccccc2)c2ccccc2)n1,CG4 differentiation compared with 9cis-RA positive control,[1],promoting differentiation significantly higher than 9cis-RA positive control
same,fold induction at 1 µM,rat primary OPC cultures,> 1.6
Nc1ncnc2nc[nH]c12 [Adenine],neuroprotection of viability/metabolic activity against NMDA,[2],hit compounds
same,preservation of neurite length and network integrity (branching),mouse cortical neurons,preserved both neurite length and the network integrity (branching)
CN1[C@@H]2CC[C@H]1C[C@@H](OC(c1ccccc1)c1ccccc1)C2 [BENZATROPINE],"CG4 differentiation, fold increase relative to control",[1],over 1.5 fold
same,CG4 differentiation compared with 9cis-RA positive control,[1],promoting differentiation significantly higher than 9cis-RA positive control
same,fold induction at 1 µM,rat primary OPC cultures,> 1.6
CCOC(=O)c1cnc2c(cnn2CC)c1NN=C(C)C [Etazolate],fold induction at 1 µM,rat primary OPC cultures,> 1.6
"CC1(C)O[C@@H]2C[C@H]3[C@@H]4C[C@H](F)C5=CC(=O)C=C[C@]5(C)[C@@]4(F)[C@@H](O)C[C@]3(C)[C@]2(C(=O)CO)O1 [Fluocinolone acetonide, Fluocinolone Acetonide]",neuroprotection of viability/metabolic activity against NMDA,[2],hit compounds
CN1[C@@H]2CC[C@H]1C[C@@H](OC(=O)[C@H](CO)c1ccccc1)C2 [Hyoscyamine],neuroprotection of viability/metabolic activity against NMDA,[2],hit compounds
same,preservation of neurite length and network integrity (branching),mouse cortical neurons,preserved both neurite length and the network integrity (branching)
N[C@@H](CO)C(=O)O [L-Serine],neuroprotection of viability/metabolic activity against NMDA,[2],hit compounds
CNC(=O)c1cccc2cc(Oc3ccnc4cc(OCC5(N)CC5)c(OC)cc34)ccc12 [LUCITANIB],CG4 differentiation compared with 9cis-RA positive control,[1],promoting differentiation significantly higher than 9cis-RA positive control
same,fold induction at 1 µM,rat primary OPC cultures,> 1.6
COCCNCc1ccc(-c2cc3nccc(Oc4ccc(NC(=S)NC(=O)Cc5ccc(F)cc5)cc4F)c3s2)nc1 [MGCD-265],fold induction at 1 µM,rat primary OPC cultures,> 1.6
CN(C(=O)/C=C/c1ccoc1)[C@@H]1CC[C@@]2(O)[C@H]3Cc4ccc(O)c5c4[C@@]2(CCN3CC2CC2)[C@H]1O5 [Nalfurafine hydrochloride],neuroprotection of viability/metabolic activity against NMDA,[2],hit compounds
FC(F)(F)c1ccc(CNc2ccc(Cc3c[nH]c4ncc(Cl)cc34)cn2)cn1 [PLX-3397],CG4 differentiation compared with 9cis-RA positive control,[1],promoting differentiation significantly higher than 9cis-RA positive control
same,fold induction at 1 µM,rat primary OPC cultures,> 1.6
Cn1c(=O)c(Oc2ccc(F)cc2F)cc2cnc(NC(CCO)CCO)nc21 [Pamapimod],neuroprotection of viability/metabolic activity against NMDA,[2],hit compounds
CC(C)(C)c1cc(NC(=O)Nc2ccc(-c3cn4c(n3)sc3cc(OCCN5CCOCC5)ccc34)cc2)no1 [Quizartinib],CG4 differentiation compared with 9cis-RA positive control,[1],promoting differentiation significantly higher than 9cis-RA positive control
same,fold induction at 1 µM,rat primary OPC cultures,> 1.6
NC(=O)[C@@H]1CC[C@H](c2ccc(OCc3ccccc3F)cc2)N1 [Raxatrigine],neuroprotection of viability/metabolic activity against NMDA,[2],hit compounds
same,preservation of neurite length and network integrity (branching),mouse cortical neurons,preserved both neurite length and the network integrity (branching)
O=C(Nc1ccccc1Br)N[C@@H]1CCN(c2ccc(C(F)(F)F)cn2)C1 [SB-705498],neuroprotection of viability/metabolic activity against NMDA,[2],hit compounds
Cc1[nH]c(/C=C2\C(=O)Nc3ccc(F)cc32)c(C)c1C(=O)NC[C@H](O)CN1CCOCC1 [SU14813],fold induction at 1 µM,rat primary OPC cultures,> 1.6
